Results from the supplement of paper PMC6045584.
± gives the standard deviation of the averaged measurements.

These test systems were tested with CCN(CC)CCNC(=O)c1c(C)[nH]c(/C=C2\C(=O)Nc3ccc(F)cc32)c1C [SUNITINIB] (assay: surviving fraction relative to DMSO-only wells; higher = less growth inhibition). Settings: 0.5 nM; exposure time: 5 days.
How it was run: (§1)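 Viability was scored with CellTiter-Glo luminescence and normalised to the median of DMSO-only wells as surviving fraction. Beforehand, log-phase tumour cell lines were seeded at 250–500 cells per well in 384-well plates, allowed 24 hours, and exposed continuously for five days to inhibitors at 0.5, 1, 5, 10, 50, 100, 500 and 1000 nM. Only lines whose three screens gave replicate Pearson r >0.7 and median Z' >0.3 were kept.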

C33A CERVIX and CAL72 BONE are within error of each other in surviving fraction: 1.1 ± 0.13 for the first, 0.977 ± 0.016 for the second.

G292 BONE and HCC1395 BREAST are within error of each other in surviving fraction: 0.903 ± 0.05 for the first, 0.977 ± 0.037 for the second.

Going from HUO3N1 BONE to LNCAP PROSTATE, the surviving fraction rises from 0.907 ± 0.082 to 1.12 ± 0.06.

Test System SCC003 HEADNECK has a surviving fraction of 0.834 ± 0.071.

Same assay, conditions: 1 nM; exposure time: 5 days

CAL72 BONE and G292 BONE are within error of each other in surviving fraction: 0.995 ± 0.028 for the first, 0.947 ± 0.037 for the second.

HCC1395 BREAST and HUO3N1 BONE are within error of each other in surviving fraction: 0.829 ± 0.066 for the first, 0.88 ± 0.056 for the second.

Going from LNCAP PROSTATE to SCC003 HEADNECK, the surviving fraction falls from 1.19 ± 0.081 to 0.807 ± 0.064.

Same assay, conditions: 5 nM; exposure time: 5 days

Going from C33A CERVIX to G292 BONE, the surviving fraction falls from 1.18 ± 0.12 to 0.938 ± 0.048.

Going from HCC1395 BREAST to HUO3N1 BONE, the surviving fraction falls from 0.9396 ± 0.0017 to 0.8743 ± 0.0058.

SCC003 HEADNECK showed a surviving fraction of 0.851 ± 0.036.

Same assay, conditions: 10 nM; exposure time: 5 days

G292 BONE and HCC1395 BREAST are within error of each other in surviving fraction: 0.904 ± 0.027 for the first, 0.969 ± 0.094 for the second.

Compared with HUO3N1 BONE, LNCAP PROSTATE is higher in surviving fraction: 0.82 ± 0.034 for the first, 1.01 ± 0.12 for the second.

For SCC003 HEADNECK, the surviving fraction was 0.784 ± 0.058.

Same assay, conditions: 50 nM; exposure time: 5 days

Compared with C33A CERVIX, G292 BONE is lower in surviving fraction: 1.12 ± 0.049 for the first, 0.909 ± 0.032 for the second.

Going from HCC1395 BREAST to HUO3N1 BONE, the surviving fraction falls from 1.09 ± 0.11 to 0.817 ± 0.035.

LNCAP PROSTATE and SCC003 HEADNECK are within error of each other in surviving fraction: 1.08 ± 0.093 for the first, 0.97 ± 0.07 for the second.

Same assay, conditions: 100 nM; exposure time: 5 days

First: C33A CERVIX
Second: CAL72 BONE
The surviving fraction of the first is higher: 1.22 ± 0.1 for the first, 1.058 ± 0.0023 for the second.

G292 BONE and HCC1395 BREAST are within error of each other in surviving fraction: 0.887 ± 0.061 for the first, 1.06 ± 0.17 for the second.

Compared with HUO3N1 BONE, LNCAP PROSTATE is higher in surviving fraction: 0.801 ± 0.036 for the first, 1.14 ± 0.037 for the second.

For SCC003 HEADNECK, the surviving fraction was 0.919 ± 0.017.

Same assay, conditions: 500 nM; exposure time: 5 days

Going from C33A CERVIX to CAL72 BONE, the surviving fraction rises from 0.647 ± 0.081 to 0.92 ± 0.0072.

Going from G292 BONE to HCC1395 BREAST, the surviving fraction rises from 0.553 ± 0.014 to 0.971 ± 0.046.

First: HUO3N1 BONE
Second: LNCAP PROSTATE
The surviving fraction of the first is lower: 0.64 ± 0.0053 for the first, 0.854 ± 0.11 for the second.

Test System SCC003 HEADNECK has a surviving fraction of 0.495 ± 0.02.

Same assay, conditions: 1000 nM; exposure time: 5 days

Compared with C33A CERVIX, CAL72 BONE is higher in surviving fraction: 0.339 ± 0.019 for the first, 0.663 ± 0.044 for the second.

First: G292 BONE
Second: HCC1395 BREAST
The surviving fraction of the first is lower: 0.306 ± 0.0087 for the first, 1.01 ± 0.12 for the second.

Going from HUO3N1 BONE to LNCAP PROSTATE, the surviving fraction rises from 0.379 ± 0.016 to 0.45 ± 0.033.

SCC003 HEADNECK was tested, and the surviving fraction was 0.265 ± 0.034.

These test systems were tested with O=C(NOCC1CC1)c1ccc(F)c(F)c1Nc1ccc(I)cc1Cl in the same assay as above. Settings: 0.5 nM; exposure time: 5 days.
How it was run: as §1

Compared with C33A CERVIX, CAL72 BONE is higher in surviving fraction: 0.68 ± 0.058 for the first, 1.045 ± 0.0036 for the second.

G292 BONE and HCC1395 BREAST are within error of each other in surviving fraction: 0.986 ± 0.059 for the first, 0.997 ± 0.2 for the second.

Going from HUO3N1 BONE to LNCAP PROSTATE, the surviving fraction falls from 1.04 ± 0.051 to 0.795 ± 0.11.

SCC003 HEADNECK gave a surviving fraction of 0.843 ± 0.1.

Same assay, conditions: 1 nM; exposure time: 5 days

Going from C33A CERVIX to CAL72 BONE, the surviving fraction rises from 0.7503 ± 0.0031 to 1.065 ± 0.0074.

G292 BONE and HCC1395 BREAST are within error of each other in surviving fraction: 0.942 ± 0.064 for the first, 0.963 ± 0.14 for the second.

First: HUO3N1 BONE
Second: LNCAP PROSTATE
The surviving fraction of the first is higher: 1.01 ± 0.056 for the first, 0.855 ± 0.081 for the second.

Test System SCC003 HEADNECK has a surviving fraction of 0.826 ± 0.05.

Same assay, conditions: 5 nM; exposure time: 5 days

First: C33A CERVIX
Second: CAL72 BONE
The surviving fraction of the first is lower: 0.868 ± 0.12 for the first, 1.07 ± 0.012 for the second.

G292 BONE and HCC1395 BREAST are within error of each other in surviving fraction: 0.985 ± 0.052 for the first, 0.951 ± 0.17 for the second.

Going from HUO3N1 BONE to LNCAP PROSTATE, the surviving fraction falls from 1.05 ± 0.03 to 0.828 ± 0.11.

SCC003 HEADNECK showed a surviving fraction of 0.942 ± 0.11.

Same assay, conditions: 10 nM; exposure time: 5 days

Compared with C33A CERVIX, CAL72 BONE is higher in surviving fraction: 0.841 ± 0.071 for the first, 1.09 ± 0.041 for the second.

G292 BONE and HCC1395 BREAST are within error of each other in surviving fraction: 0.986 ± 0.035 for the first, 0.958 ± 0.2 for the second.

HUO3N1 BONE and LNCAP PROSTATE are within error of each other in surviving fraction: 1.04 ± 0.029 for the first, 0.99 ± 0.11 for the second.

SCC003 HEADNECK was tested, and the surviving fraction was 0.907 ± 0.086.

Same assay, conditions: 50 nM; exposure time: 5 days

Going from C33A CERVIX to CAL72 BONE, the surviving fraction rises from 0.736 ± 0.085 to 1.051 ± 0.0061.

G292 BONE and HCC1395 BREAST are within error of each other in surviving fraction: 0.967 ± 0.041 for the first, 0.838 ± 0.14 for the second.

HUO3N1 BONE and LNCAP PROSTATE are within error of each other in surviving fraction: 1.03 ± 0.037 for the first, 0.854 ± 0.17 for the second.

SCC003 HEADNECK was tested, and the surviving fraction was 0.917 ± 0.079.

Same assay, conditions: 100 nM; exposure time: 5 days

Going from C33A CERVIX to CAL72 BONE, the surviving fraction rises from 0.686 ± 0.047 to 1.085 ± 0.0095.

G292 BONE and HCC1395 BREAST are within error of each other in surviving fraction: 0.959 ± 0.058 for the first, 0.96 ± 0.052 for the second.

HUO3N1 BONE and LNCAP PROSTATE are within error of each other in surviving fraction: 1.01 ± 0.011 for the first, 0.921 ± 0.094 for the second.

In the case of SCC003 HEADNECK, the surviving fraction is reported as 0.924 ± 0.056.

Same assay, conditions: 500 nM; exposure time: 5 days

First: C33A CERVIX
Second: CAL72 BONE
The surviving fraction of the first is lower: 0.477 ± 0.066 for the first, 1.07 ± 0.021 for the second.

G292 BONE and HCC1395 BREAST are within error of each other in surviving fraction: 0.897 ± 0.047 for the first, 0.86 ± 0.075 for the second.

HUO3N1 BONE and LNCAP PROSTATE are within error of each other in surviving fraction: 0.935 ± 0.017 for the first, 0.945 ± 0.024 for the second.

Work on SCC003 HEADNECK yielded a surviving fraction of 0.689 ± 0.037.

Same assay, conditions: 1000 nM; exposure time: 5 days

Going from C33A CERVIX to CAL72 BONE, the surviving fraction rises from 0.461 ± 0.032 to 1.056 ± 0.0038.

First: G292 BONE
Second: HCC1395 BREAST
The surviving fraction of the first is lower: 0.924 ± 0.0059 for the first, 0.979 ± 0.042 for the second.

HUO3N1 BONE and LNCAP PROSTATE are within error of each other in surviving fraction: 1 ± 0.029 for the first, 0.884 ± 0.18 for the second.

For SCC003 HEADNECK, the surviving fraction was 0.648 ± 0.033.
